One may read the IC50 as the concentration at which inhibition is half-maximal.

Common to all, as to format: cell-based
One test has as its system HCT-116 wild-type cells. Nature of the test: Inhibitory activity on proliferation of HCT-116 wild-type cells (Cell-Titer Glo). The following applies: Homo sapiens, 144 h, incubated 6 d, 0-10,000 nM. The gist of the method:
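HCT-116 wild-type cells in RPMI-1640 with 10% FBS were plated overnight, then exposed to compound for 6 d at 37°C (0–10,000 nM final, 2.5-fold, 10 points, 0.2% DMSO). Viability was read by Cell-Titer Glo luminescence.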

For test [1], the system named is LU99 MTAP overexpressing cells. The test is described as follows: Inhibitory activity on proliferation of LU99 MTAP overexpressing cells (Cell-Titer Glo). The following applies: Homo sapiens, Lu-99, 144 h, incubated 6 d, 0-10,000 nM. The protocol: Materials and cells: LU99 MTAP overexpressing cell line was purchased from Kyinno Biotechnology (China); cell culture medium and fetal bovine serum were purchased from Thermo Fisher Scientific (USA); 384-well plates were purchased from PerkinElmer (USA); Cell-Titer Glo kits were purchased from Promega (USA).
Cell culture: LU99 MTAP overexpressing cells were cultured with medium containing 10% fetal bovine serum at 37°C in 5% carbon dioxide. Only cells in the logarithmic growth phase could be used for the test.
(§1) Test of inhibitory activity on cell proliferation: The Cell-Titer Glo kit was used to test the proliferation inhibitory activity of the compounds on LU99 MTAP overexpressing cells. The cell concentration was adjusted, rendering that cells were inoculated into a 384-well plate at 40 µL per well and incubated overnight at 37°C and 5% carbon dioxide. 40 nL of the compound was added to each well to reach a final concentration of 0-10,000 nM (starting concentration 10,000 nM, 2.5-fold dilution, 10 points), and the cell plate with 0.2% DMSO content was incubated at 37°C and 5% carbon dioxide for 6 d. 40 µL of Cell-Titer Glo reagent was added to test cell viability.

Test [2] relates to LU99 MTAP(-/-)deleted cells. Nature of the test: Inhibitory activity on proliferation of LU99 MTAP(-/-)deleted cells (Cell-Titer Glo). The following applies: Homo sapiens, Lu-99, 144 h, incubated 6 d, 0-1,000 nM. The protocol: Materials and cells: LU99 MTAP deleted cell line was purchased from Kyinno Biotechnology (China); cell culture medium and fetal bovine serum were purchased from Thermo Fisher Scientific (USA); 384-well plates were purchased from PerkinElmer (USA); Cell-Titer Glo kits were purchased from Promega (USA).
Cell culture: LU99 MTAP(-/-)deleted cells were cultured with medium containing 10% fetal bovine serum at 37°C in 5% carbon dioxide. Only cells in the logarithmic growth phase could be used for the test.
as §1, with “MTAP(-/-)deleted” for “MTAP overexpressing”, “0-1,000” for “0-10,000”, “1,000” for “10,000”

For test [3], the system named is HCT-116 MTAP(-/-)deleted cells. Nature of the test: Inhibitory activity on proliferation of HCT-116 MTAP(-/-)deleted cells (Cell-Titer Glo). The following applies: Homo sapiens, 144 h, incubated 6 d, 0-1,000 nM. The gist of the method: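 HCT-116 MTAP(-/-) cells in RPMI 1640 with 10% FBS were seeded overnight, then exposed to compound (10 points, 2.5-fold dilutions from 1,000 nM; 0.2% DMSO) for 6 d at 37 °C. Viability was read by CellTiter-Glo luminescence.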

Each structure is given as a SMILES string. Bounds are passed on as bounds.

As to `CN(C(=O)c1cc2c3c(c(N)nc2cn1)COC3)[C@H]1COC(C)(C)c2cc(C(F)(F)F)ccc21` [Example 25, (R)-4-Amino-N-(1,1-dimethyl-7-(trifluoromethyl)isochroman-4-yl)-N-methyl-1,3-dihydrofuro[3,4-c][1,7]naphthyridine-8-carboxamide], the IC50 in the test with HCT-116 wild-type cells was greater than 10000 nM; in test [1], greater than 10000 nM; in test [2] it was 503 nM; in test [3] it was 817 nM.

Consider `CN(C(=O)c1cc2c3c(c(N)nc2cn1)COC3)[C@@H]1COC(C)(C)c2cc(C(F)(F)F)ccc21` [Example 26, (S)-4-Amino-N-(1,1-dimethyl-7-(trifluoromethyl)isochroman-4-yl)-N-methyl-1,3-dihydrofuro[3,4-c][1,7]naphthyridine-8-carboxamide], for which the 50% inhibitory concentration (IC50) in the test on HCT-116 wild-type cells was 2050 nM; in test [1] it was 1310 nM; in test [2] it was 14.9 nM; in test [3], 11 nM.

Regarding `CN(C(=O)c1cc2c(cn1)nc(N)c1cnn(C)c12)[C@H]1COC(C)(C)c2cc(C(F)(F)F)ccc21` [Example 27, (R)-4-amino-N-(1,1-dimethyl-7-(trifluoromethyl)isochroman-4-yl)-N,1-dimethyl-1H-pyrazolo[4,3-c][1,7]naphthyridine-8-carboxamide], the IC50 was greater than 10000 nM with HCT-116 wild-type cells, 9590 nM in test [1], 51.9 nM in test [2] and 74 nM in test [3].

As for `CN(C(=O)c1cc2c(cn1)nc(N)c1cnn(C)c12)[C@@H]1COC(C)(C)c2cc(C(F)(F)F)ccc21` [Example 28, (S)-4-amino-N-(1,1-dimethyl-7-(trifluoromethyl)isochroman-4-yl)-N,1-dimethyl-1H-pyrazolo[4,3-c][1,7]naphthyridine-8-carboxamide], the IC50 stood at 226 nM in the test with HCT-116 wild-type cells, 376 nM in test [1], 10.7 nM in test [2] and 10.3 nM in test [3].

For `CN(C(=O)c1cc2c3c(c(N)nc2cn1)COC3)C1COC2(CCC2)c2cc(C(F)(F)F)ccc21` (centres unmarked) [Example 29, 4-Amino-N-methyl-N-(7'-(trifluoromethyl)spiro[cyclobutane-1,1'-isochroman]-4'-yl)-1,3-dihydrofuro[3,4-c][1,7]naphthyridine-8-carboxamide], the half-maximal inhibitory concentration (IC50) in the test on HCT-116 wild-type cells is 1790 nM; in test [1] it was 1030 nM; in test [2], 23.7 nM; in test [3], 17 nM.

For the compound `CN(C(=O)c1ccc2nc(N)c3cnn(C)c3c2c1)C1COC2(CCC2)c2cc(C(F)(F)F)ccc21` (centres unmarked) [Example 30], the IC50 is 767 nM in the test on HCT-116 wild-type cells, 862 nM in test [1], 10.9 nM in test [2] and 5.3 nM in test [3].

`CN(C(=O)c1ccc2nc(N)c3cnn(C)c3c2c1)[C@@H]1COC(C)(C)c2cc(-c3cnn(C(F)(F)F)c3)ccc21` [Example 32, (S)-4-amino-N-(1,1-dimethyl-7-(1-(trifluoromethyl)-1H-pyrazol-4-yl)isochroman-4-yl)-N,1-dimethyl-1H-pyrazolo[4,3-c]quinoline-8-carboxamide]: the 50% inhibitory concentration (IC50) in the test with HCT-116 wild-type cells is 1530 nM; in test [1], 1890 nM; in test [2] it was 6.8 nM; in test [3], 5.7 nM.

Regarding `CN(C(=O)c1ccc2nc(N)c3cnn(C)c3c2c1)[C@@H]1COC(C)(C)c2cc(N3CCOCC3)ccc21` [Example 33, (S)-4-amino-N-(1,1-dimethyl-7-morpholinoisochroman-4-yl)-N,1-dimethyl-1H-pyrazolo[4,3-c]quinoline-8-carboxamide], the IC50 in the test with HCT-116 wild-type cells was 1340 nM; in test [1], 2260 nM; in test [2] it was 8.6 nM; in test [3], 5.3 nM.

With `Cc1ncc(-c2ccc3c(c2)C(C)(C)OC[C@H]3N(C)C(=O)c2ccc3nc(N)c4cnn(C)c4c3c2)cn1` [Example 34, (S)-4-amino-N-(1,1-dimethyl-7-(2-methylpyrimidin-5-yl)isochroman-4-yl)-N,1-dimethyl-1H-pyrazolo[4,3-c]quinoline-8-carboxamide], the IC50 in the test on HCT-116 wild-type cells amounted to 1620 nM; in test [1], 1660 nM; in test [2] it was 5.2 nM; in test [3], 8.5 nM.

For `Cc1nn(C)c2c1c(N)nc1ccc(C(=O)N(C)[C@@H]3COC(C)(C)c4cc(C(F)(F)F)ccc43)cc12` [Example 35, (S)-4-amino-N-(1,1-dimethyl-7-(trifluoromethyl)isochroman-4-yl)-N,1,3-trimethyl-1H-pyrazolo[4,3-c]quinoline-8-carboxamide], the IC50 in the test on HCT-116 wild-type cells amounted to 2100 nM; in test [1], 858 nM; in test [2], 24.2 nM; in test [3], 15 nM.

For `CN(C(=O)c1ccc2nc(N)c3ncncc3c2c1)[C@@H]1COC(C)(C)c2cc(C(F)(F)F)ccc21` [Example 36, N-[(4S)-1,1-dimethyl-7-(trifluoromethyl)isochroman-4-yl](5-aminopyrimido[4,5-c]quinolin-9-yl)-N-methylformamide], the concentration for half-maximal inhibition (IC50) in the test on HCT-116 wild-type cells came to 2840 nM; in test [1], 668 nM; in test [2], 116 nM; in test [3] it was 95.1 nM.

As to `CN(C(=O)c1ccc2nc(N)c3cnccc3c2c1)[C@@H]1COC(C)(C)c2cc(C(F)(F)F)ccc21` [Example 37, (S)-5-amino-N-(1,1-dimethyl-7-(trifluoromethyl)isochroman-4-yl)-N-methylbenzo[c][2,7]naph thyridine-9-carboxamide], the half-maximal inhibitory concentration (IC50) with HCT-116 wild-type cells was determined as 4100 nM; in test [1], 810 nM; in test [2], 36.4 nM; in test [3] it was 33.4 nM.

In the case of `CN(C(=O)c1cc2c(cc1C(F)(F)F)nc(N)c1cnn(C)c12)[C@@H]1COC(C)(C)c2cc(C(F)(F)F)ccc21` [Example 38, N-[(4S)-1,1-dimethyl-7-(trifluoromethyl)isochroman-4-yl] [4-amino-1-methyl-7-(trifluoromethyl)pyrazolo[4,5-c]quinolin-8-yl]-N-methylformamide], the IC50 came out at 1470 nM in the test with HCT-116 wild-type cells, 2050 nM in test [1], 15 nM in test [2] and 8.1 nM in test [3].

`CN(C(=O)c1ccc2nc(N)c3cnn(C)c3c2c1)C1COC(C)(C)c2nc(C(F)(F)F)ccc21` (centres unmarked) [Example 39]: the IC50 with HCT-116 wild-type cells was 1140 nM; in test [1] it was 1290 nM; in test [2], 8.4 nM; in test [3] it was 5.2 nM.

Turning to `CN(C(=O)c1cc2c3c(c(N)nc2cn1)COC3)C1COC2(CC2)c2cc(C(F)(F)F)ccc21` (centres unmarked) [Example 40, 4-Amino-N-methyl-N-(7'-(trifluoromethyl)spiro[cyclopropane-1,1'-isochroman]-4'-yl)-1,3-dihydrofuro[3,4-c][1,7]naphthyridine-8-carboxamide], the 50% inhibitory concentration (IC50) in the test on HCT-116 wild-type cells was 2200 nM; in test [1], 2040 nM; in test [2], 21.2 nM; in test [3], 13 nM.

With `CN(C(=O)c1ccc2nc(N)c3cnn(C)c3c2c1)[C@@H]1COC(C)(C)c2cc(-c3cncc(C(F)(F)F)c3)ccc21` [Example 41, (S)-4-amino-N-(1,1-dimethyl-7-(5-(trifluoromethyl)pyridin-3-yl)isochroman-4-yl)-N,1-dimethyl-1H-pyrazolo[4,3-c]quinoline-8-carboxamide], the IC50 in the test on HCT-116 wild-type cells was determined as 1030 nM; in test [1] it was 1860 nM; in test [2], 6.1 nM; in test [3], 4.6 nM.

Consider `CN(C(=O)c1ccc2nc(N)c3cnn(C)c3c2c1)[C@@H]1COC(C)(C)c2cc(-c3cscn3)ccc21` [Example 42, N-((4S)-1,1-dimethyl-7-(1,3-thiazol-4-yl)isochroman-4-yl)(4-amino-1-methylpyrazolo[4,5-c]quinolin-8-yl)-N-methylformamide], for which the 50% inhibitory concentration (IC50) in the test with HCT-116 wild-type cells was 1760 nM; in test [1] it was 1140 nM; in test [2], 6.1 nM; in test [3] it was 4.4 nM.

The record behind these values is EP4803519A1, “NOVEL PRMT5 INHIBITOR AND USE THEREOF” (Shanghai Apeiron Therapeutics Company Limited, priority 2023, dated 2025).
